Source: publication PMC3325260, “Label-Free Phenotypic Profiling Identified D-Luciferin as a GPR35 Agonist” (PLoS ONE, 2012)
Where two headings read alike, the source gives them in different places. One block for each molecule: values may come before it.

Columns and labels:
[1] = test system: ERK1/2 phosphorylation in HT-29 cells; test: ERK phosphorylation, Western blot; assay type: cell-based, human; details: for effect on the D-luciferin-induced ERK phosphorylation: 5 min after 32 µM D-luciferin, antagonist at different doses
Text: Since ligand-directed functional selectivity or biased agonism is quite common to many, if not all, GPCRs, we next examined the activity of D-luciferin using ERK phosphorylation, receptor internalization and Tango β-arrestin translocation assays. ERK phosphorylation is a hallmark of the activation and signaling of many GPCRs including GPR35 [20].
The phosphorylated ERK and total ERK were blotted, and actin was used as control. Representative images obtained from 2 independent measurements were used.
The p44/42 MAP kinases were examined using Western blotting. Whole cell lysates were collected after the cells were treated with a compound or DMSO for 1 hr. Equivalent gel loading was confirmed by probing with anti-actin body. The total ERK1/2 and phosphorylated ERK1/2 were blotted using respective antibodies.

[2] = target: T1, endogenous GPR35 in HT-29 cells (Homo sapiens, UniProt Q9HC97); test: DMR agonist assay in native HT-29 cells; assay type: cell-based; design: endogenous in cells; host or cells: HT-29; details: for maximal P-DMR amplitude: HT-29 cells, picometer shift of resonant wavelength, n = 36; for DMR response of the compound alone: HT-29, up to 64 µM
Text: First, multiple DMR assays were employed to characterize the pharmacology of D-luciferin in HT-29 cells, a native cell line endogenously expressing GPR35 [18]. […] Second, D-luciferin-induced internalization of endogenous GPR35 in HT-29 cells was examined. Third, D-luciferin-induced ERK phosphorylation in the absence and presence of GPR35 antagonists was examined in HT-29 cells. Fourth, Tango β-arrestin translocation assay was finally employed to examine the agonism of D-luciferin to cause β-arrestin translocation in an engineered cell line.
(§1) All DMR assays were performed using Epic® system (Corning Inc.). Epic® is a wavelength interrogation reader system tailored for resonant waveguide grating biosensors in microtiter plates. This system consists of a temperature-control unit (26°C), an optical detection unit, and an on-board liquid handling unit with robotics. The detection unit is centered on integrated fiber optics, and enables kinetic measures of cellular responses with a time interval of ∼15 sec. Cells were directly seeded in Epic® plates and cultured overnight to form confluent monolayer in the cell culture medium. The cell seeding density was 32, 000 cells per well, unless specifically mentioned. After being washed twice, the cells were maintained with HBSS (1× Hanks balanced salte buffer, 10 mM Hepes-KOH, pH 7.1) and further incubated inside the system for 1 hr. […] The assay vehicle containing equal amount of DMSO (dimethyl sulfoxide) was used as a control. All ligand-induced DMR were background corrected.

[3] = target: T2, human GPR35 in Tango GPR35-bla U2OS cells (Homo sapiens, UniProt Q9HC97)
[4] = target: T1, endogenous GPR35 in HT-29 cells; details: 32 µM, 1 hr
Text: Representative images obtained from 2 independent measurements were used.

[5] = test system: purified luciferase enzyme; details: binding to purified luciferase enzyme; cited from earlier work
[6] = target: T1, endogenous GPR35 in HT-29 cells
Protocol: All data represent mean ± s.d. from 2 independent measurements, each in duplicate (n = 4).
as §1

[7] = target: T2, human GPR35 in Tango GPR35-bla U2OS cells; test: cell-based; details: read-out: maximal response relative to the zaprinast maximal response
[8] = target: T1, endogenous GPR35 in HT-29 cells; test: cell-based
Protocol: as §1

[9] = target: T1, endogenous GPR35 in HT-29 cells; test: DMR antagonist assay (antagonist pre-treatment, then agonist); assay type: cell-based; design: endogenous in cells; host or cells: HT-29; details: for IC50: 5 min pre-stimulation with antagonist, then D-luciferin at 32 µM, n = 4, read-out: apparent IC50 of blocking the DMR induced by D-luciferin
Protocol: as §1, with “Epic®” for “All DMR assays were performed using Epic® system (Corning Inc.). Epic®”

[10] = target: T1, endogenous GPR35 in HT-29 cells; design: endogenous in cells; host or cells: HT-29; method as in PMID 21950657; details: up to 64 µM; cited from earlier work
[11] = target: T1, endogenous GPR35 in HT-29 cells; design: endogenous in cells; host or cells: HT-29; method as in PMID 21950657; details: cited from earlier work

T2 sequence (Q9HC97 whole entry): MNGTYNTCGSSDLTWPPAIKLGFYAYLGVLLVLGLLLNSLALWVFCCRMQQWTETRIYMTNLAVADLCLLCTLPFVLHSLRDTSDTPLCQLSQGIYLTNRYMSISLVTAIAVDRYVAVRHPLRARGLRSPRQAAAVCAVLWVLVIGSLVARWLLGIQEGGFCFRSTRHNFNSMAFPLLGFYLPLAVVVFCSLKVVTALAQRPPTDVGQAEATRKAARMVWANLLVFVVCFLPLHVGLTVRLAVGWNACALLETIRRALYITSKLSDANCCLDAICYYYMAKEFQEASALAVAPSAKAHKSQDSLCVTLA
T1 sequence (Q9HC97 whole entry): as above

IC50 [9]: 1.5 ± 0.2 µM | D-luciferin DMR in presence of antagonist at the two highest doses ([9]; SPB05142 at 16 and 32 µM, D-luciferin 32 µM): small but detectable negative DMR signal
Compound: COC(=O)c1cnn(-c2ccc(F)cc2F)c1C=NNC(=S)NC(C)(C)C [SPB05142, methyl-5-[(tert-butylcarbamothioylhydrazinylidene)-methyl]-1-(2,4-difluorophenyl)-pyrazole-4-carboxylate]
ERK phosphorylation by compound alone ([1]; 25 µM): weak but detectable ERK phosphorylation | effect on the D-luciferin-induced ERK phosphorylation [1]: dose-dependently attenuated | DMR response of the compound alone [10]: did not lead to any detectable DMR | blockade of the DMR induced by zaprinast [11]: almost completely blocked

DMR response of the compound alone [2]: little response | IC50 [9]: 5 ± 0.9 µM
Compound: COC(=O)c1cnn(-c2ccc(F)cc2F)c1/C=N/NC(N)=S [SPB05140]

DMR response of the compound alone [2]: little response | IC50 [9]: 2.6 ± 0.3 µM
Compound: COC(=O)c1cnn(-c2ccc(F)cc2F)c1/C=N/NC(=S)Nc1ccccc1 [SPB05143]

The next lines start with the molecule.

Compound: Cc1c(C(=O)O)sc2c(Br)csc12 [YE210]
ERK phosphorylation ([1]; 1 µM, 30 min after treatment): led to ERK phosphorylation

Compound: O=C(O)c1cc2ccccc2c(Cc2c(O)c(C(=O)O)cc3ccccc23)c1O [pamoic acid]
ERK phosphorylation ([1]; 1 µM, 30 min after treatment): much lower ERK phosphorylation

Compound: CC(/C=C1\SC(=S)N(CCCC(=O)Nc2ccc(C(=O)O)c(O)c2)C1=O)=C\c1ccccc1 [ML145]
effect on the D-luciferin-induced ERK phosphorylation [1]: dose-dependently attenuated

Compound: O=C(O)[C@H]1CSC(c2nc3ccc(O)cc3s2)=N1 [D-luciferin, (S)-2-(6′-hydroxy-2′-benzothiazolyl)thiazoline-4-carboxylic acid]
maximal P-DMR amplitude [2]: 198±12 pm | effect on the maximal response of zaprinast, Tango co-stimulation ([3]; 100 µM D-luciferin): only slightly suppressed | effect on the maximal response of zaprinast, Tango co-stimulation ([3]; 1 mM D-luciferin): suppressed the maximal response | effect on the potency of zaprinast, Tango co-stimulation ([3]; D-luciferin at 100 µM and 1 mM): little impact | internalization of endogenous GPR35 [4]: remarked internalization | time of maximum ERK phosphorylation after stimulation ([1]; 32 µM D-luciferin): 2 min | ERK phosphorylation ([1]; 32 µM D-luciferin for different times): led to phosphorylation of ERK in a time-dependent manner | Km [5]: 16 µM | effect on the potency of pamoic acid in DMR co-stimulation ([6]; D-luciferin at different fixed doses, up to 50 µM): did not alter the potency | effect on DMR of pamoic acid at 200 nM (saturating concentration) ([6]; high doses of D-luciferin): reduced the DMR in a dose-dependent manner | Emax [7]: 20% | IC50 [8]: 6.8 ± 0.7 µM

Compound: CCCOc1ccccc1-c1nc2nn[nH]c2c(=O)[nH]1 [zaprinast]
maximal P-DMR amplitude [2]: 276±17 pm | ERK phosphorylation ([1]; 1 µM, 30 min after treatment): led to ERK phosphorylation
